Paper PMC8748870, “Topoisomerase I (TOP1) dynamics: conformational transition from open to closed states” (Nature Communications, 2022)

Target: T1, HsTOP1 (Homo sapiens, UniProt P11387)
T1 construct: gene TOP1; recombinant human TOP1, wild type, purified from baculovirus expression
T1 sequence (P11387 2-765): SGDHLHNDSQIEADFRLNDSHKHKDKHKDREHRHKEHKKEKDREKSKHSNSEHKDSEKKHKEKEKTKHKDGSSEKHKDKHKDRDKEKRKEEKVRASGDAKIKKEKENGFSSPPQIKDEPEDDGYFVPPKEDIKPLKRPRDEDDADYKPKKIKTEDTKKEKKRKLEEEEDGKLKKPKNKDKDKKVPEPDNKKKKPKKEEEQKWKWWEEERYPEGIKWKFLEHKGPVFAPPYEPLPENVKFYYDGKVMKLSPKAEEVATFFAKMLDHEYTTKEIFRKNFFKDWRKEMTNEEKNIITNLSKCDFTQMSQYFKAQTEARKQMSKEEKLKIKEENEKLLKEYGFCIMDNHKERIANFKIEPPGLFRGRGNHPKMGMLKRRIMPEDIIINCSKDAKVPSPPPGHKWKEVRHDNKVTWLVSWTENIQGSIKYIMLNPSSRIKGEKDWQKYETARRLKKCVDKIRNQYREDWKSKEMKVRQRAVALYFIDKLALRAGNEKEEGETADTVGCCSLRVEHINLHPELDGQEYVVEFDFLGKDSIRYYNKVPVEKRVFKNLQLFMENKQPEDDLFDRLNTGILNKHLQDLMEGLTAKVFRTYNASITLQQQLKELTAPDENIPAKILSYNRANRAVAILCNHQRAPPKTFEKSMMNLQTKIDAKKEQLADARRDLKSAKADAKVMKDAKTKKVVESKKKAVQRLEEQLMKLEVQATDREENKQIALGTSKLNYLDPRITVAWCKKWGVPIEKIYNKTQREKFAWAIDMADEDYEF
Experiment: […]-labelled oligonucleotide cleavage assay, denaturing PAGE
Assay type: biochemical
Settings: traps TOP1-DNA cleavage complex; 30-bp DNA, pH 7.5, 5 mM Mg2+, 50 mM KCl, 25 °C

CC[C@@]1(O)C(=O)OCc2c1cc1n(c2=O)Cc2cc3ccccc3nc2-1 [CPT, camptothecin]
CPT-dependent cleavage bands: incubation of HsTOP1 induced TOP1ccs exclusively in the presence of CPT
